Reference: ChEMBL document CHEMBL2010660, “Synthesis, SAR and biological evaluation of 1,6-disubstituted-1H-pyrazolo[3,4-d]pyrimidines as dual inhibitors of Aurora kinases and CDK1” (Bioorg Med Chem Lett, 2012)
Active and inactive are the calls of the source. The calls are words filed in the database; no cut-off is given here.

Tests used:
Aurora kinase A = molecular target: T1, Aurora kinase A (Homo sapiens, UniProt O14965); experiment: Inhibition of aurora A kinase
T1 sequence (O14965 whole entry): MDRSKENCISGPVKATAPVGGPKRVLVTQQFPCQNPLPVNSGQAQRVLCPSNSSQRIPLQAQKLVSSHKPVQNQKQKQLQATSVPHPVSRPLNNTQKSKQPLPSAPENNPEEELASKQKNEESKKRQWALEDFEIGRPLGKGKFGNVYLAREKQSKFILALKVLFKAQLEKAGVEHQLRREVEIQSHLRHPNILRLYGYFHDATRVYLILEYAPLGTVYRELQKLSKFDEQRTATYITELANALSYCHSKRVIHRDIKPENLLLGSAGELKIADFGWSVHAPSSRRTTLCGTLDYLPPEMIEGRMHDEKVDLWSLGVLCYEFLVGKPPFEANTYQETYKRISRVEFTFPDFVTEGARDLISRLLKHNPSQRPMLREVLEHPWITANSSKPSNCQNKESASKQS

HCT-116 [1] = experiment: Cell cycle arrest in human HCT116 cells assessed as minimum concentration required for G2/M versus G1 peak ratio over 2; format: functional
HCT-116 [2] = experiment: Cytotoxicity against human HCT116 cells after 5 days by MTS assay; format: functional, cell-based; conditions: HCT-116, 120 h
Aurora kinase B [3] = molecular target: T2, Aurora kinase B (Homo sapiens, UniProt Q96GD4); experiment: Inhibition of aurora B kinase
T2 sequence (Q96GD4 whole entry): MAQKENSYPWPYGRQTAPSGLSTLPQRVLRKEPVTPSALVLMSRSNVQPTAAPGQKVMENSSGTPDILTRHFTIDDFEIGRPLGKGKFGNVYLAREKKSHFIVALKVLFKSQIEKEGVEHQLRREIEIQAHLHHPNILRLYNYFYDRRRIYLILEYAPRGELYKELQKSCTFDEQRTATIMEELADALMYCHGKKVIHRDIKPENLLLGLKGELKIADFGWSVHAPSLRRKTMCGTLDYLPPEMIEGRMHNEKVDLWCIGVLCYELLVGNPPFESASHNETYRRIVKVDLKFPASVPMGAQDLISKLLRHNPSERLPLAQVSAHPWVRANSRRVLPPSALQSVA

[4] = molecular target: Cyclin-dependent kinase 1 (Homo sapiens, UniProt P06493); experiment: Inhibition of CDK1
Sequence of Cyclin-dependent kinase 1 (P06493 whole entry): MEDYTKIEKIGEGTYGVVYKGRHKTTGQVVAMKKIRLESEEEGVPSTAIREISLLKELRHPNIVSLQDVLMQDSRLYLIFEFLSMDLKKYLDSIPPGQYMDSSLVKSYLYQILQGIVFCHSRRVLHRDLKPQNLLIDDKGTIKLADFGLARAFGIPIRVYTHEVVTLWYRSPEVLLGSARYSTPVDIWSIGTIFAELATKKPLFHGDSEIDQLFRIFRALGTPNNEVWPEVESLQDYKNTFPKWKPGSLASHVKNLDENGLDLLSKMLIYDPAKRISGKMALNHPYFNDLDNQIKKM

[5] = Metabolic stability in mouse liver microsome assessed as ratio of clearance to hepatic blood flow; format: ADME; conditions: liver microsomes, read-out: QH
Mus musculus [6] = experiment: Toxicity in nu/nu mouse xenografted with human HCT116 cells assessed as weight loss at 12.5 to 40 mg/kg, ip qd for 21 days; format: organism-based, HCT-116; parameters: dose 12.5-40 mg/kg, route intraperitoneal; conditions: in vivo, 504 h
[7] = Half life in mouse at 25 mg/kg, ip; format: ADME, organism-based; parameters: dose 25 mg/kg, route intraperitoneal; conditions: in vivo
Mus musculus [8] = experiment: Inhibition of CDK1 in mouse serum assessed as decrease in histone H3 phosphorylation at 25 mg/kg, ip measured after 2 hrs; format: functional; conditions: route intraperitoneal
Mus musculus [9] = experiment: Inhibition of CDK1 in mouse serum assessed as decrease in histone H1 phosphorylation at 25 mg/kg, ip measured after 2 hrs; format: functional; conditions: route intraperitoneal
Rattus norvegicus [10] = experiment: Apparent volume of distribution in rat at 4 mg/kg, iv; format: ADME, organism-based; parameters: dose 4 mg/kg, route intravenous; conditions: in vivo
[11] = Toxicity in human BMNC assessed as granulocyte/monocyte colony forming units ratio after 14 days by microscopic analysis; conditions: 336 h
Mus musculus [12] = experiment: Toxicity in nu/nu mouse xenografted with human HCT116 cells assessed as hunched posture at 12.5 to 40 mg/kg, ip qd for 21 days; format: organism-based, HCT-116; parameters: dose 12.5-40 mg/kg, route intraperitoneal; conditions: in vivo, 504 h
HCT-116 [13] = experiment: Antitumor activity against human HCT116 cells xenografted in nu/nu mouse assessed as tumor growth inhibition at 12.5 to 40 mg/kg, ip qd for 21 days; format: functional; conditions: dose mg/kg 12.5-40; route intraperitoneal
[14] = Clearance in mouse at 25 mg/kg, ip; format: ADME, organism-based; parameters: dose 25 mg/kg, route intraperitoneal; conditions: in vivo
Mus musculus [15] = experiment: Apparent volume of distribution in mouse at 25 mg/kg, ip; format: ADME, organism-based; parameters: dose 25 mg/kg, route intraperitoneal; conditions: in vivo
Mus musculus [16] = experiment: Toxicity in nu/nu mouse xenografted with human HCT116 cells assessed as reluctance to move at 12.5 to 40 mg/kg, ip qd for 21 days; format: organism-based, HCT-116; parameters: dose 12.5-40 mg/kg, route intraperitoneal; conditions: in vivo, 504 h
Aurora kinase B [17] = molecular target: T2, Aurora kinase B; experiment: Inhibition of aurora B kinase phosphorylation in human K562 cells at 0.003 to 1 uM by Western blot analysis; format: cell-based
[18] = AUC in rat at 4 mg/kg, iv; format: ADME, organism-based; parameters: dose 4 mg/kg, route intravenous; conditions: plasma
Rattus norvegicus [19] = experiment: Half life in rat at 4 mg/kg, iv; format: ADME, organism-based; parameters: dose 4 mg/kg, route intravenous; conditions: in vivo
Mus musculus [20] = experiment: Inhibition of aurora A kinase in mouse assessed as increase in histone H3 phosphorylation at 25 mg/kg, ip measured after 6 hrs; format: functional, organism-based; parameters: dose 25 mg/kg
[21] = molecular target: T3, Aurora kinase A (Homo sapiens) (UniProt O14965); experiment: Inhibition of aurora A kinase phosphorylation in human K562 cells at 0.003 to 1 uM by Western blot analysis; format: cell-based
T3 sequence (whole entry): T1 sequence (O14965 whole entry)

[22] = AUC in mouse at 25 mg/kg, ip; format: ADME, organism-based; parameters: dose 25 mg/kg, route intraperitoneal; conditions: plasma
Mus musculus [23] = experiment: Inhibition of aurora A in mouse assessed as increase in histone H3 phosphorylation at 25 mg/kg, ip measured after 9 hrs; format: functional, organism-based; parameters: dose 25 mg/kg
Mus musculus [24] = experiment: Toxicity in nu/nu mouse xenografted with human HCT116 cells assessed as mortality at 12.5 to 40 mg/kg, ip qd for 21 days; format: organism-based, HCT-116; parameters: dose 12.5-40 mg/kg, route intraperitoneal; conditions: in vivo, 504 h

IC50 (Aurora kinase A) | IC50 (Aurora kinase B [3]) | IC50 [4] | hepatic extraction ratio [5] | Compound | Activity (HCT-116 [1]) | IC50 (HCT-116 [2]) | also measured
3 nM | 4 nM | 21 nM | – | Cn1cc(Nc2ncc3cnn([C@@H]4C[C@H]5C[C@H]5C4)c3n2)cc1C(=O)N1CCC[C@H]1CN1CCOCC1 | 0.017 µM | 8 nM | –
25 nM | 18 nM | 38 nM | 0.89 | Cn1cc(Nc2ncc3cnn(C4C5CC6CC(C5)CC4C6)c3n2)cc1C(N)=O (stereo not given) | 0.3 µM | 270 nM | –
80 nM | 50 nM | 1200 nM | – | CNC[C@@H]1CCCN1C(=O)c1cc(Nc2ncc3cnn([C@@H]4C[C@H]5C[C@H]5C4)c3n2)cn1C | 0.3 µM | 150 nM | –
30 nM | 5 nM | 24 nM | 0.92 | Cn1cc(Nc2ncc3cnn(C4CCC(C)(C)CC4)c3n2)cc1C(N)=O | 0.1 µM | 100 nM | –
13 nM | 22 nM | 13 nM | 0.85 | Cn1cc(Nc2ncc3cnn([C@@H]4CC[C@H]5CCC[C@H]54)c3n2)cc1C(N)=O | 0.1 µM | 66 nM | –
87 nM | 23 nM | 15 nM | 0.87 | Cn1cc(Nc2ncc3cnn(C4CCCCCC4)c3n2)cc1C(N)=O | 0.23 µM | 140 nM | –
230 nM | 38 nM | 160 nM | 0.27 | CC(C)n1ncc2cnc(Nc3cc(C(N)=O)n(C)c3)nc21 | 1 µM | 1000 nM | –
40 nM | 5 nM | 19 nM | 0.89 | Cn1cc(Nc2ncc3cnn(C4CCC5(CC4)CC5)c3n2)cc1C(N)=O | 0.3 µM | 120 nM | –
2 nM | 4 nM | 40 nM | – | C[C@@H]1CCCN1C(=O)c1cc(Nc2ncc3cnn([C@@H]4C[C@H]5C[C@H]5C4)c3n2)cn1C | 0.03 µM | 130 nM | –
10 nM | 5 nM | 47 nM | – | Cn1cc(Nc2ncc3cnn([C@@H]4C[C@H]5C[C@H]5C4)c3n2)cc1C(=O)N1CCC[C@H]1CN1CCCC1 | 0.03 µM | 11 nM | –
4 nM | 3 nM | 10 nM | – | Cn1cc(Nc2ncc3cnn([C@@H]4C[C@H]5C[C@H]5C4)c3n2)cc1C(=O)N1CCC[C@H]1CO | 0.01 µM | 18 nM | –
17 nM | 4 nM | 24 nM | 0.69 | Cn1cc(Nc2ncc3cnn([C@@H]4C[C@H]5C[C@H]5C4)c3n2)cc1C(N)=O | 0.1 µM | 79 nM | –
6 nM | 4 nM | 10 nM | – | Cn1cc(Nc2ncc3cnn([C@@H]4C[C@H]5C[C@H]5C4)c3n2)cc1C(=O)N1CCC[C@H]1C(N)=O | 0.03 µM | 47 nM | –
– | – | – | – | O=C1N=C(NCc2cccs2)S/C1=C\c1ccc2ncccc2c1 | – | 3200 nM | –
16 nM | 6 nM | 150 nM | – | COC[C@H]1CCCN1C(=O)c1cc(Nc2ncc3cnn([C@@H]4C[C@H]5C[C@H]5C4)c3n2)cn1C | 0.065 µM | 60 nM | –
100 nM | 36 nM | 150 nM | – | Cn1cc(Nc2ncc3cnn([C@@H]4C[C@H]5C[C@H]5C4)c3n2)cc1C(=O)N1CCC[C@@H]1CO | 0.1 µM | 170 nM | –
1.5 nM | 4 nM | 390 nM | – | Cn1cc(Nc2ncc3cnn([C@@H]4C[C@H]5C[C@H]5C4)c3n2)cc1C(=O)N1CCC[C@@H]1CN1CCOCC1 | 0.03 µM | 24 nM | –
21 nM | 12 nM | 16 nM | 0.76 | Cn1cc(Nc2ncc3cnn([C@H]4CC[C@H]5CCC[C@H]54)c3n2)cc1C(N)=O | 0.3 µM | 230 nM | –
– | – | – | – | O=C(O)c1ccc(Nc2ncc3c(n2)-c2ccc(Cl)cc2C(c2c(F)cccc2F)=NC3)cc1 [MLN-8054] | – | 690 nM | –
19 nM | 4 nM | 1700 nM | – | CN(C)C(=O)[C@@H]1CCCN1C(=O)c1cc(Nc2ncc3cnn([C@@H]4C[C@H]5C[C@H]5C4)c3n2)cn1C | 0.1 µM | 160 nM | –
17 nM | 40 nM | 41 nM | – | Cn1cc(Nc2ncc3cnn([C@@H]4C[C@H]5C[C@H]5C4)c3n2)cc1C(=O)N1CCCC1 | 0.1 µM | 95 nM | –
150 nM | 19 nM | 50 nM | 0.89 | Cn1cc(Nc2ncc3cnn(C4CCC5(CC5)C4)c3n2)cc1C(N)=O (stereo not given) | 0.65 µM | 290 nM | –

Compound | IC50 (Aurora kinase A) | IC50 (Aurora kinase B [3]) | IC50 [4] | hepatic extraction ratio [5] | Activity (HCT-116 [1]) | IC50 (HCT-116 [2]) | also measured
COC[C@@H]1CCCN1C(=O)c1cc(Nc2ncc3cnn([C@@H]4C[C@H]5C[C@H]5C4)c3n2)cn1C | 4 nM | 5 nM | 22 nM | – | 0.03 µM | 10 nM | Activity (Mus musculus [6]): 2%; half-life [7]: 1 h; inhibition in vivo at 25 mg/kg (Mus musculus [8]): 90%; inhibition in vivo at 25 mg/kg (Mus musculus [9]): 60%; Vz (Rattus norvegicus [10]): 5 L/kg; Ratio [11]: 32; Activity (Mus musculus [12]): Toxic; TGI (HCT-116 [13]): 30%; CL/F [14]: 65 mL/min/kg; Vz (Mus musculus [15]): 3 L/kg; Activity (Mus musculus [16]): Toxic; inhibition (Aurora kinase B [17]): Active; AUC [18]: 1230 ng·h/mL; t1/2 (Rattus norvegicus [19]): 5 h; inhibition (Mus musculus [20]): Active; inhibition [21]: Active; AUC [22]: 6420 ng·h/mL; inhibition (Mus musculus [23]): Active; Activity (Mus musculus [24]): Toxic
